From patent publication US20230172206A1 (BASF SE, priority 2020, published 2023)

How the values were obtained:
[1] = system: Phakopsora pachyrhizi (F129L); test: Protective control of soybean rust on soybeans (PHAKPA P2); format: in vivo; settings: for % PHAKPA (F129L) Disease level P2 at 4 ppm: protective P2, 4 ppm; for % PHAKPA (F129L) Disease level P2 at 16 ppm: protective P2, 16 ppm
[2] = system: Phakopsora pachyrhizi (F129L); test: Protective control of soybean rust on soybeans (PHAKPA P6); format: in vivo; settings: for % PHAKPA (F129L) Disease level P6 at 4 ppm: protective P6, 4 ppm; for % PHAKPA (F129L) Disease level P6 at 16 ppm: protective P6, 16 ppm

Row | Compound | % PHAKPA (F129L) Disease level P2 at 4 ppm ([1]; F129L isolate) | % PHAKPA (F129L) Disease level P2 at 16 ppm ([1]; F129L isolate) | % PHAKPA (F129L) Disease level P6 at 4 ppm ([2]; F129L isolate) | % PHAKPA (F129L) Disease level P6 at 16 ppm ([2]; F129L isolate) | % PHAKPA (F129L) Disease level P2 at 4 ppm ([1]; soybean rust F129L isolate) | % PHAKPA (F129L) Disease level P2 at 16 ppm ([1]; soybean rust F129L isolate) | % PHAKPA (F129L) Disease level P6 at 4 ppm ([2]; soybean rust F129L isolate) | % PHAKPA (F129L) Disease level P6 at 16 ppm ([2]; soybean rust F129L isolate)
1 | CNC(=O)/C(=N/OC)c1cccc(C)c1CO/N=C(\C)c1ccc(-c2ccccc2)cc1OC(F)(F)F [compound 435] | 93% | 57% | 87% | 60% |  |  |  | 
2 | CNC(=O)/C(=N/OC)c1cccc(C)c1CO/N=C(\C)c1cc(C(F)(F)F)cc(F)c1NC [compound 238] |  |  |  |  | 100% | 53% | 100% | 77%
3 | CNC(=O)/C(=N/OC)c1cccc(C)c1CO/N=C(\C)c1cc(F)ccc1Br [compound 248] |  |  |  |  | 33% | 2% | 30% | 2%
4 | CO/N=C(/C(=O)OC)c1cccc(C)c1CO/N=C(\C)c1ccccc1OC(F)F [compound 253] |  |  |  |  | 100% | 87% | 100% | 57%
5 | CO/C=C(/C(=O)OC)c1cccc(C)c1CO/N=C(\C)c1c(Cl)ccc(Cl)c1OC(F)(F)F [compound 444] | 100% | 47% | 83% | 53% |  |  |  | 
6 | CNC(=O)/C(=N/OC)c1cccc(C)c1CO/N=C(\C)c1cc(Cl)ccc1C(F)(F)F [compound 245] |  |  |  |  | 28% | 8% | 13% | 2%
7 | CNC(=O)/C(=N/OC)c1cccc(C)c1CO/N=C(\C)c1ccc(OC)cc1C(F)(F)F [compound 324] |  |  |  |  | 2% | 1% | 12% | 0%
8 | CNC(=O)/C(=N/OC)c1cccc(C)c1CO/N=C(\C)c1ccccc1C#N [compound 225] |  |  |  |  | 83% | 27% | 100% | 97%
9 | CNC(=O)/C(=N/OC)c1cccc(C)c1CO/N=C(\C)c1c(F)ccc(F)c1C(F)(F)F [compound 359] |  |  |  |  | 100% | 37% | 100% | 43%
10 | CCC/C(=N\OCc1c(C)cccc1/C(=N\OC)C(=O)NC)c1ccccc1 [compound 388] | 1% | 0% | 3% | 0% |  |  |  | 
11 | CNC(=O)/C(=N/OC)c1cccc(C)c1CO/N=C(\C)c1cccc(Cl)c1C(F)(F)F [compound 422] | 30% | 0% | 32% | 2% |  |  |  | 
12 | CNC(=O)/C(=N/OC)c1cccc(C)c1CO/N=C(\C)c1c(F)cccc1Cl [compound 284] |  |  |  |  | 63% | 44% | 62% | 34%
13 | CNC(=O)/C(=N/OC)c1cccc(C)c1CO/N=C(\C)c1c(F)cc(F)cc1C(F)(F)F [compound 357] |  |  |  |  | 13% | 1% | 18% | 0%
14 | CO/N=C(/C(=O)OC)c1cccc(C)c1CO/N=C(\C)c1ccc(Cl)cc1C(F)(F)F [compound 304] |  |  |  |  | 53% | 28% | 100% | 37%
15 | CNC(=O)/C(=N/OC)c1cccc(C)c1CO/N=C(\C)c1cccc(F)c1C(F)(F)F [compound 326] |  |  |  |  | 25% | 0% | 30% | 1%
16 | CO/N=C(/C(=O)OC)c1cccc(C)c1CO/N=C(\C)c1c(C)cccc1F [compound 285] |  |  |  |  | 87% | 50% | 90% | 35%
17 | CNC(=O)/C(=N/OC)c1cccc(C)c1CO/N=C(\C)c1ccc(C)cc1OC(F)(F)F [compound 340] |  |  |  |  | 23% | 4% | 42% | 7%
18 | CO/N=C(/C(=O)OC)c1cccc(C)c1CO/N=C(\C)c1ccc(OC)cc1OC(F)(F)F [compound 373] |  |  |  |  | 77% | 27% | 100% | 38%
19 | CNC(=O)/C(=N/OC)c1cccc(C)c1CO/N=C(\C)c1ccccc1C1(C)CC1 [compound 296] |  |  |  |  | 100% | 40% | 100% | 83%
20 | CNC(=O)/C(=N/OC)c1cccc(C)c1CO/N=C(\C)c1ccc(OC(F)(F)F)cc1F [compound 270] |  |  |  |  | 3% | 0% | 0% | 1%
21 | CNC(=O)/C(=N/OC)c1cccc(C)c1CO/N=C(\C)c1ccccc1COC [compound 277] |  |  |  |  | 100% | 60% | 100% | 100%
22 | CNC(=O)/C(=N/OC)c1cccc(C)c1CO/N=C(\C)c1cc(Br)cc(F)c1F [compound 241] |  |  |  |  | 3% | 0% | 33% | 12%
23 | CNC(=O)/C(=N/OC)c1cccc(C)c1CO/N=C(\C)c1c(Cl)ccc(Cl)c1OC(F)(F)F [compound 441] | 100% | 43% | 97% | 50% |  |  |  | 
24 | CNC(=O)/C(=N/OC)c1cccc(C)c1CO/N=C(\C)c1ccccc1C1CC1(F)F (stereo not drawn) [compound 288] |  |  |  |  | 87% | 30% | 97% | 20%
25 | CNC(=O)/C(=N/OC)c1cccc(C)c1CO/N=C(\C)c1ccc(Cl)c(F)c1CC(F)(F)F [compound 412] | 47% | 6% | 40% | 6% |  |  |  | 
26 | CO/N=C(/C(=O)OC)c1cccc(C)c1CO/N=C(\C)c1cccc(F)c1C(F)(F)F [compound 330] |  |  |  |  | 83% | 24% | 93% | 17%
27 | CNC(=O)/C(=N/OC)c1cccc(C)c1CO/N=C(\C)c1cc(Cl)c(F)c(Cl)c1 [compound 247] |  |  |  |  | 16% | 2% | 33% | 8%
28 | CO/N=C(/C)c1ccc(/C(C)=N/OCc2c(C)cccc2/C(=N\OC)C(=O)OC)c(C(F)(F)F)c1 [compound 417] | 35% | 18% | 63% | 22% |  |  |  | 
29 | C=Cc1cccc(/C(=N\OC)C(=O)NC)c1CO/N=C(\C)c1ccccc1 [compound 400] | 2% | 0% | 8% | 0% |  |  |  | 
30 | CO/N=C(/C(=O)OC)c1cccc(C)c1CO/N=C(\C)c1ccc(C#N)cc1C(F)(F)F [compound 423] | 100% | 57% | 93% | 53% |  |  |  | 
